{"source": "ChEMBL document CHEMBL3045772", "about": "“Amide derivatives of [6-acyl-2-benzothiazolinon-3-yl] acetic acids as potential analgesic and anti-inflammatory compounds” (Med Chem Res, 2010)", "format_in_all_cases": "functional", "key": {"Mus musculus [1]": {"system": "Mus musculus", "assay": "Anti-inflammatory activity in Mus musculus Swiss albino (mouse) assessed as inhibition of carrageenan-induced edema at 10 mg/kg, po pretreated 60 min before carrageenan-challenge measured after 90 min"}, "Mus musculus [2]": {"system": "Mus musculus", "assay": "Anti-inflammatory activity in Mus musculus Swiss albino (mouse) assessed as inhibition of carrageenan-induced edema at 10 mg/kg, po pretreated 60 min before carrageenan-challenge measured after 360 min"}, "Mus musculus [3]": {"system": "Mus musculus", "assay": "Anti-inflammatory activity in Mus musculus Swiss albino (mouse) assessed as inhibition of carrageenan-induced edema at 10 mg/kg, po pretreated 60 min before carrageenan-challenge measured after 270 min"}, "Mus musculus [4]": {"system": "Mus musculus", "assay": "Anti-inflammatory activity in Mus musculus Swiss albino (mouse) assessed as inhibition of carrageenan-induced edema at 10 mg/kg, po pretreated 60 min before carrageenan-challenge measured after 180 min"}}, "data": [{"smiles": "COc1ccc2c(c1)c(CC(=O)O)c(C)n2C(=O)c1ccc(Cl)cc1", "note": "[INDOMETHACIN]", "values": [{"measurement": "inhibition in vivo at 10 mg/kg", "setting": "Mus musculus [1]", "value": 25.4, "unit": "%"}, {"measurement": "inhibition in vivo at 10 mg/kg", "setting": "Mus musculus [2]", "value": 40.1, "unit": "%"}, {"measurement": "inhibition in vivo at 10 mg/kg", "setting": "Mus musculus [3]", "value": 36.2, "unit": "%"}, {"measurement": "inhibition in vivo at 10 mg/kg", "setting": "Mus musculus [4]", "value": 30.7, "unit": "%"}]}]}
